Laboratory results reported in patent US7268162B2, “Aloe-emodin derivatives and their use in the treatment of neoplasias” (Universita' Degli Studi di Padova, priority 2001, dated 2007).
Where a name gives a salt, the structure may show the parent alone.

Columns and labels:
[1] = water and physiological solution; cited from earlier work
[2] = tested on: tumour cells of neuroectodermal origin; details: Italian patent application No. MI 2000A001216; cited from earlier work
IMR5 [3] = experiment: In vitro cytotoxicity assay (MTT), neuroblastoma IMR-5; format: cell-based, human; details: medium with 10% inactivated FBS
Procedure: (§1) In vitro cytotoxicity assays were conducted on different tumour cell lines, also of neuroectodermal origin. Purpose of said assays was also to check the compounds cytotoxic action and specificity. […] The aforesaid cells were assayed with the following compounds: • AM: ester of maleic acid (ex. 1) dissolved in DMSO • AS: ester of succinic acid (ex. 2) dissolved in DMSO • ADG: ester of diglycolic acid (ex. 3) dissolved in DMSO • AF: ester of phthalic acid (ex. 4) dissolved in DMSO • ABT: […] AE phosphoric ester (ex.12) dissolved in HEPES • AED: AE acetal with daunosamine (ex.13) dissolved in HEPES The cells, cultured according to known methods, were seeded 24 hrs prior to treatment with the various derivatives at a concentration of 1000 cells/100 μl. For molecules dissolved in dimethylsulphoxide, DMSO, the concentration of the initial stock was 200 mM and for molecules dissolved in a HEPES buffer and in the physiological solution was 1 mM. […] For each assay, a control was carried out with the medium alone (RPMI with 10% inactivated fetal bovine serum, FBS, and 1% penicillin/streptomycin). […] The cells viability was assessed by the MTT dye assay. […] The EC50 values (μM) referred to each compound and cell line are given.

SJ-N-KP [4] = experiment: In vitro cytotoxicity assay (MTT), neuroblastoma SJ-N-KP; format: cell-based, human; details: 72 hrs exposure, medium with 10% inactivated FBS
Procedure: as §1

LoVo 109 [5] = experiment: In vitro cytotoxicity assay (MTT), colon adenocarcinoma LoVo 109; format: cell-based, human; details: 72 hrs exposure, medium with 10% inactivated FBS
Procedure: as §1

IMR5 [6] = experiment: In vitro cytotoxicity assay (MTT), neuroblastoma IMR-5; format: cell-based, human; details: 72 hrs exposure, medium with non-inactivated FBS (esterase)
LoVo 109 [7] = experiment: In vitro cytotoxicity assay (MTT), colon adenocarcinoma LoVo 109; format: cell-based, human; details: 72 hrs exposure, medium with non-inactivated FBS (esterase)
SJ-N-KP [8] = experiment: In vitro cytotoxicity assay (MTT), neuroblastoma SJ-N-KP; format: cell-based, human; details: 72 hrs exposure, medium with non-inactivated FBS (esterase)

Row | Compound | EC50 (IMR5 [3]; 72 hrs exposure) [µM] | EC50 (SJ-N-KP [4]) [µM] | EC50 (LoVo 109 [5]) [µM] | other results
1 | O=C1c2cccc(O)c2C(=O)c2c(O)cc(CO)cc21 [Aloe-emodin, aloe-emodin] | – | – | – | solubility [1]: hardly soluble in water and in the physiological solution; cytotoxicity [2]: specific cytotoxicity to tumour cells of neuroectodermal origin
2 | O=C(O)C=CC(=O)OCc1cc(O)c2c(c1)C(=O)c1cccc(O)c1C2=O [Ex. 1: AM, mono-(4,5-dihydroxy-9,10-dioxo-9,10-dihydroanthracen-2-ylmethyl)ester but-2-endioic acid] | 270 to 280 | 270 to 280 | – | –
3 | O=C(O)CCC(=O)OCc1cc(O)c2c(c1)C(=O)c1cccc(O)c1C2=O [Ex. 2: AS, mono-(4,5-dihydroxy-9,10-dioxo-9,10-dihydroanthracen-2-ylmethyl)ester succinic acid] | 40 | 43 | 43 | –
4 | O=C(O)COCC(=O)OCc1cc(O)c2c(c1)C(=O)c1cccc(O)c1C2=O [Ex. 3: ADG, (4,5-Dihydroxy-9,10-dioxo-9,10-dihydroanthracen-2-ylmethoxycarbonylmethoxy) acetic acid] | – | – | – | EC50 (LoVo 109 [5]; Homo sapiens, LoVo): 20 µM; EC50 (IMR5 [3]; Homo sapiens, IMR-5, 72 hrs exposure): 10 µM; EC50 (SJ-N-KP [4]; Homo sapiens): 10 µM
5 | O=C(O)c1ccccc1C(=O)OCc1cc(O)c2c(c1)C(=O)c1cccc(O)c1C2=O [Ex. 4: AF, mono-(4,5-dihydroxy-9,10-dioxo-9,10-dihydroanthracen-2-ylmethyl)ester phthalic acid] | 250 | 300 | – | EC50 (IMR5 [6]): 50 µM; EC50 (LoVo 109 [7]): 50 µM; EC50 (SJ-N-KP [8]): 50 µM
6 | O=C(O)c1ccc(C(=O)OCc2cc(O)c3c(c2)C(=O)c2cccc(O)c2C3=O)c(C(=O)O)c1 [Ex. 5: ABT, 1-(4,5-dihydroxy-9,10-dioxo-9,10-dihydroanthracen-2-ylmethyl)ester 1,2,4-Benzenetricarboxylic acid] | 160 | 150 | – | –
7 | N[C@@H](Cc1c[nH]c2ccccc12)C(=O)OCc1cc(O)c2c(c1)C(=O)c1cccc(O)c1C2=O [Ex. 6: TRIP, AE Ester with Tryptophan] | 10 | 8 to 9 | 8 to 9 | –
8 | CC(N)C(=O)OCc1cc(O)c2c(c1)C(=O)c1cccc(O)c1C2=O (centres unmarked) [Ex. 7: ALA-NH2, AE Ester with Alanine] | 300 | 264 | – | –
9 | CC[C@H](C)[C@H](N)C(=O)OCc1cc(O)c2c(c1)C(=O)c1cccc(O)c1C2=O [Ex. 8: PJ8, AE Ester with Isoleucine] | 9 | 9 | 20 | –
10 | NC(Cc1ccc(O)cc1)C(=O)OCc1cc(O)c2c(c1)C(=O)c1cccc(O)c1C2=O (centres unmarked) [Ex. 9: TIR-NH2, AE Ester with Tyrosine] | – | 96.4 | 26 | –
11 | C[C@H](N)C(=O)OCc1cc(O)c2c(c1)C(=O)c1cccc(O)c1C2=O [Ex. 10: EM9, ala-aloe-emodin trifluoroacetate] | 6.7 | 6.7 | 5 | –
12 | C[C@H](N)C(=O)OCc1cc(O)c2c(c1)C(=O)c1cccc(O)c1C2=O [Ex. 11: ALA, ala-aloe-emodin hydrochloride] | – | – | 200 | EC50 (IMR5 [3]; 72 hrs exposure, hydrochloride): 200 µM; EC50 (IMR5 [3]; 72 hrs exposure, listed as Ex. 11: ALA-HCI, hydrochloride): 70.6 µM; EC50 (SJ-N-KP [4]; hydrochloride): 200 µM; EC50 (SJ-N-KP [4]; listed as Ex. 11: ALA-HCI, hydrochloride): 70.6 µM
13 | O=C1c2cccc(O)c2C(=O)c2c(O)cc(COP(=O)(O)O)cc21 [Ex. 12: AEP, AE Ester with Phosphoric Acid] | 10 | 12 | 20 | –
14 | AE Acetal with Daunosamine [Ex. 13: AED] | 5 | 5 | 10 | –
